Measured values: EPA's ToxValDB 9.5 (doi:10.2903/j.efsa.2012.2879)
Values after ≈ are worked out from the molar mass of the structure shown.

Tests used:
Apis mellifera = details: acute; duration: 48 hours; dermal; mortality
Colinus virginianus = details: acute, oral, mortality
Daphnia magna = details: chronic/long-term; duration: 21 days; reproduction

## Cc1cc(C)c(C2=C(OC(=O)CC(C)(C)C)C3(CCCC3)OC2=O)c(C)c1 [Spiromesifen]
Anas platyrhynchos; reproductive, reproduction
  NOEC: 229 mg/kg
Anas platyrhynchos; short-term, oral, feed, mortality
  LC50: > 5000 mg/kg
Apis mellifera
  LD50: > 200 µg/piece
Colinus virginianus; diet
  LC50: > 5000 mg/kg
Colinus virginianus
  LD50: > 2000 mg/kg
Daphnia magna
  NOEC: 0.00025 mg/L
Mus musculus; chronic, duration: 18 months
  NOAEL: 3 mg/kg-day
Mus musculus; subchronic, duration: 90 days, oral, clinical chemistry
  NOAEL: 3 mg/kg-day
Oncorhynchus mykiss; acute, duration: 96 hours, mortality
  LC50: 0.016 µg/mL (≈ 0.0432 µM)
Oncorhynchus mykiss; chronic/long-term, duration: 97 days
  NOEC: 0.00473 mg/L
Rattus norvegicus; acute, neurology
  NOAEL: 2000 mg/kg-day
Rattus norvegicus; acute, oral, mortality
  LD50: > 2500 mg/kg
Rattus norvegicus; reproduction developmental, reproduction
  NOEC: 30 mg/kg-day
Tagia sp.; acute, duration: 14 days, mortality
  LC50: > 1000 mg/kg
Tagia sp.; chronic/long-term, duration: 56 days, reproduction
  NOEC: 4.32 mg/kg
